Key:
[1] = system: metabolism of retinoic acid in human breast cancer cells; test: Inhibition of retinoic acid (RA) metabolism (Example C.1); format: cell-based; conditions: MCF-7 human breast cancer cells, 3H-RA as substrate; concentration needed to reduce the amount of metabolites to 50% of the control
Procedure, shortened: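 MCF-7 cells, pre-stimulated with RA the day before, incubated with ³H-RA substrate and test compound in 1% DMSO. Polar ³H-metabolites separated from unmetabolized RA and counted by scintillation. IC50 is the concentration cutting metabolite formation to 50% of control, with blank run alongside.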

Ovariectomized rats = test: Vaginal keratinization test on ovariectomized rats (Example C.2); format: in vivo; conditions: estradiol undecylate induced keratinization, per os once daily on days 1-3, active dose = 50% of rats show complete suppression
Procedure, shortened: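 Ovariectomized rats given s.c. estradiol undecylate (100 μg per 100 g body weight in sesame oil), then oral compound once daily on days 1-3 (vehicle PEG 200). Vaginas assessed histologically one day after last dose; lowest active dose (mg/kg) is the dose giving complete keratinization suppression in 50% of rats.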

Row | SMILES | IC50 [1] | LAD (lowest active dose) (Ovariectomized rats)
1 | O=C(Nc1ccc(C(c2ccccc2)n2ccnc2)cc1)C(O)c1ccccc1 (centres unmarked) [Compound 420] | 83.8 nM | >20.00 mg/kg
2 | CCC(C)C(c1ccc(NC(=O)Cc2ccc(O)c(OC)c2)cc1)n1ccnc1 (centres unmarked) [Compound 432] | 0.81 nM | >2.50 mg/kg
3 | CC(=Cc1ccccc1)C(=O)Nc1ccc(C(CC(C)(C)C)n2ccnc2)cc1 (centres unmarked) [Compound 476] | 35.5 nM | >10.00 mg/kg
4 | C/C(=C\c1ccncc1)C(=O)Nc1ccc(C(C(C)C)n2ccnc2)cc1 (centres unmarked) [Compound 576] | 20.1 nM | 10.00 mg/kg
5 | C/C(=C\c1ccc(C(F)(F)F)cc1)C(=O)Nc1ccc(C(C(C)C)n2ccnc2)cc1 (centres unmarked) [Compound 580] | 31.3 nM | 10.00 mg/kg
6 | COc1cccc(/C=C(\C)C(=O)Nc2ccc(C(C(C)C)n3ccnc3)cc2)c1 (centres unmarked) [Compound 584] | 6.51 nM | 10.00 mg/kg
7 | C/C(=C\C(C)C)C(=O)Nc1ccc(C(C(C)C)n2ccnc2)cc1 (centres unmarked) [Compound 588] | 48.8 nM | 10.00 mg/kg
8 | CC(=O)Nc1ccc(/C=C(\C)C(=O)Nc2ccc(C(C(C)C)n3ccnc3)cc2)cc1 (centres unmarked) [Compound 612] | 16.8 nM | 10.00 mg/kg
9 | CC(=O)Nc1ccc(C(c2cccc(C(F)(F)F)c2)n2cncn2)cc1 (centres unmarked) [Compound 613] | 1800 nM | >20.00 mg/kg
10 | COc1ccc(CC(=O)Nc2ccc(C(n3cncn3)C(C)(C)C)cc2)cc1OC.O (centres unmarked) [Compound 642] | 1.16 nM | 2.50 mg/kg
11 | CC(C)C(c1ccc(NC(=O)Cc2ccccc2)cc1)n1ccnc1 (centres unmarked) [Compound 650] | 4.86 nM | 10.00 mg/kg
12 | CC(C)C(c1ccc(NC(=O)Cc2ccc(Cl)cc2)cc1)n1ccnc1 (centres unmarked) [Compound 651] | 10.5 nM | 5.00 mg/kg
13 | CC(C)C(c1ccc(NC(=O)Cc2cccc(F)c2)cc1)n1ccnc1 (centres unmarked) [Compound 656] | 1.47 nM | 10.00 mg/kg
14 | CC(C)C(c1ccc(NC(=O)Cc2ccccc2Cl)cc1)n1ccnc1 (centres unmarked) [Compound 664] | 1.56 nM | 5.00 mg/kg
15 | CC(C)C(c1ccc(NC(=O)C(O)c2ccc(Cl)cc2)cc1)n1ccnc1 (centres unmarked) [Compound 669] | 8.66 nM | 5.00 mg/kg

Further lines, with some results ahead:

Row | IC50 [1] | SMILES | LAD (lowest active dose) (Ovariectomized rats)
16 | 1.97 nM | CCC(c1ccc(NC(=O)Cc2ccc(Cl)cc2)cc1)n1ccnc1 (centres unmarked) [Compound 372] | 5.00 mg/kg
17 | 40.8 nM | O=C(Nc1ccc(C(c2ccc(Cl)cc2)n2ccnc2)cc1)C(O)c1ccccc1 (centres unmarked) [Compound 423] | 20.00 mg/kg
18 | 38.1 nM | O=C(Nc1ccc(C(c2ccccc2)n2ccnc2)cc1)C1COc2ccccc2O1 (centres unmarked) [Compound 425] | >10.00 mg/kg
19 | > 100 nM | O=C(CC1COc2ccccc2O1)Nc1ccc(C(c2ccccc2)n2ccnc2)cc1 (centres unmarked) [Compound 426] | >10.00 mg/kg
20 | 52.5 nM | CC(C)C(c1ccc(NC(=O)C(=Cc2ccccc2)c2ccccc2)cc1)n1ccnc1 (centres unmarked) [Compound 454] | >20.00 mg/kg
21 | > 100 nM | CC(C)/C(=C\c1ccccc1)C(=O)Nc1ccc(C(C(C)C)n2ccnc2)cc1 (centres unmarked) [Compound 471] | >10.00 mg/kg
22 | > 100 nM | C/C(=C\c1ccccc1)C(=O)Nc1ccc(C(CCC(C)C)n2ccnc2)cc1 (centres unmarked) [Compound 475] | >10.00 mg/kg
23 | > 100 nM | C/C(=C\c1ccccc1)C(=O)Nc1ccc(C(/C=C/C(C)C)n2ccnc2)cc1 (centres unmarked) [Compound 479] | >10.00 mg/kg
24 | 27.7 nM | CCCC(CCC)C(c1ccc(NC(=O)/C(C)=C/c2ccccc2)cc1)n1ccnc1 (centres unmarked) [Compound 486] | 5.00 mg/kg
25 | > 1000 nM | CC(=O)Nc1ccc(C(c2cccc(C(F)(F)F)c2)n2ccnc2)cc1 (centres unmarked) [Compound 524] | 20.00 mg/kg
26 | > 100 nM | C/C(=C\C1CCCCC1)C(=O)Nc1ccc(C(C(C)C)n2ccnc2)cc1 (centres unmarked) [Compound 581] | 20.00 mg/kg
27 | 36.7 nM | CC(=Cc1cc2ccccc2o1)C(=O)Nc1ccc(C(C(C)C)n2ccnc2)cc1 (centres unmarked) [Compound 600] | >10.00 mg/kg
28 | > 1000 nM | CC(=O)Nc1ccc(C(c2cccc(F)c2)n2cncn2)cc1 (centres unmarked) [Compound 615] | >20.00 mg/kg
29 | 5.36 nM | CC(C(=O)Nc1ccc(C(C(C)C)n2ccnc2)cc1)c1ccccc1 (centres unmarked) [Compound 657] | >10.00 mg/kg
30 | 0.358 nM | COc1ccc(CC(=O)Nc2ccc(C(C(C)C)n3ccnc3)cc2)cc1 (centres unmarked) [Compound 662] | 5.00 mg/kg
31 | 3.16 nM | CC(C)C(c1ccc(NC(=O)Cc2ccc(O)cc2)cc1)n1ccnc1 (centres unmarked) [Compound 668] | 5.00 mg/kg

Source: patent publication US7179825B2, “Retinoic acid mimetic anilides” (Janssen Pharmaceutica N.V., priority 1997, dated 2007)
